According to patent US8388986B2, “Use of cationic surfactants in cosmetic preparations” (priority 2001, dated 2013):

Key:
[1] = system: Proteus mirabilis CECT 170; assay: minimum inhibitory concentration; format: cell-based; conditions: Gram − Bacteria
[2] = system: inoculum mixture; assay: preservative efficacy (Antimicrobial Effectiveness Testing USP 24th Edition), 28 days' check; format: cell-based; conditions: 0.20 g of LAE
Description: (§1) This assay consists of the contamination of the protecting formulations with an inoculum mixture of 10^8 cfu/mL concentration, for each of the microorganisms, and the determination of the number of viable cells in the time. This inoculum mixture is composed of the following microorganisms:
(§2) The cosmetic composition to be analysed is divided into sterile containers with 50 g of product for each flask. Each container is inoculated with 0.5 mL of inoculum (10^8 cfu/mL). The target concentration is 10^6 cfu/mL, approximately. All the containers are kept at a temperature between 20-25° C. and are protected from light.
(§3) The level of the microbial contamination is checked at 0 hours, 7 days, 14 days and 28 days. The number of colonies is evaluated by dilution in buffer peptone with the appropriate neutraliser agent of the preservative. The culture media used for counting the microorganisms are: Soya triptone (35-37° C., 48 hours) for the determination of bacteria; Sabouraud agar with chloramphenicol for fungi and yeast (25° C., 3-5 days).
(§4) According to Antimicrobial Effectiveness Testing USP 24th Edition, 1999 (pp. 1809-1811), an antimicrobial preservative is considered to be effective in topically used products made with aqueous bases or vehicles, non-sterile nasal products and emulsions, including those applied to mucous membranes, if: • Not less than 2.0 logarithm reduction from the initial calculated bacteria's count is reached at 14 days and no increase from the 14 days' count at 28 days is detected; and • No increase from the initial calculated count of yeast and moulds is observed.

[3] = system: Clostridium perfringens ATCC 77454; format: cell-based; conditions: Gram + Bacteria
[4] = system: Arthrobacter oxydans ATCC 8010; assay: minimum inhibitory concentration; format: cell-based; conditions: Gram + Bacteria
[5] = system: Saccharomyces cerevisiae ATCC 9763; assay: minimum inhibitory concentration; format: cell-based; conditions: Yeast
[6] = system: Escherichia coli 0157H7; assay: minimum inhibitory concentration; format: cell-based; conditions: Gram − Bacteria
[7] = system: Alcaligenes faecalis ATCC 8750; assay: minimum inhibitory concentration; format: cell-based; conditions: Gram − Bacteria
[8] = system: Enterobacter aerogenes CECT 689; assay: minimum inhibitory concentration; format: cell-based; conditions: Gram − Bacteria
[9] = system: Candida albicans ATCC 10231; assay: minimum inhibitory concentration; format: cell-based; conditions: Yeast
[10] = system: Rhodotorula rubra CECT 1158; assay: minimum inhibitory concentration; format: cell-based; conditions: Yeast
[11] = system: Aspergillus niger ATCC 14604; assay: minimum inhibitory concentration; format: cell-based; conditions: Fungi
[12] = system: Escherichia coli ATCC 8739; assay: minimum inhibitory concentration; format: cell-based; conditions: Gram − Bacteria
[13] = system: Fungi; assay: preservative efficacy (Antimicrobial Effectiveness Testing USP 24th Edition) in cosmetic formulations; format: cell-based, Aspergillus niger ATCC 16404; conditions: 0.20 g of LAE
Description: as §1, §2, §3, §4

[14] = system: Bordetella bronchiseptica ATCC 4617; assay: minimum inhibitory concentration; format: cell-based; conditions: Gram − Bacteria
[15] = system: Klebsiella pneumoniae var pneumoniae CECT 178; assay: minimum inhibitory concentration; format: cell-based; conditions: Gram − Bacteria
[16] = system: Bacillus subtilis ATCC 6633; assay: minimum inhibitory concentration; format: cell-based; conditions: Gram + Bacteria
[17] = system: Pseudomonas aeruginosa ATCC 9027; assay: minimum inhibitory concentration; format: cell-based; conditions: Gram − Bacteria
[18] = system: Bacillus cereus var mycoide ATCC 11778; assay: minimum inhibitory concentration; format: cell-based; conditions: Gram + Bacteria

CCCCCCCCCCCC(=O)N[C@@H](CCCN=C(N)N)C(=O)OCC.Cl [LAE, ethyl ester of the lauramide of the arginine monohydrochloride]
M.I.C. [1]: 32 ppm
count at 28 days against the 14 days' count ([2]; Example 1, oil-in-water emulsion with non-ionic surfactant): no increase
count at 28 days against the 14 days' count ([2]; Example 2, oil-in-water emulsion with an ionic emulsifier): no increase
count at 28 days against the 14 days' count ([2]; Example 3, water in oil emulsion with non-ionic emulsifiers): no increase
count at 28 days against the 14 days' count ([2]; Example 4, aqueous solution with a surfactants' mixture (bath gels, disodium cocoamfoacetate)): no increase
count at 28 days against the 14 days' count ([2]; Example 5, aqueous solution with a surfactants' mixture (bath gels, disodium lauryl sulfosuccinate)): no increase
count at 28 days against the 14 days' count ([2]; Example 6, hydroalcoholic gel (after-shaving lotions)): no increase
count at 28 days against the 14 days' count ([2]; Example 7, facial tonic): no increase
count at 28 days against the 14 days' count ([2]; Example 8, mask-up cleaner): no increase
count at 28 days against the 14 days' count ([2]; Example 9, fluid oil-in-water emulsion with non-ionic surfactants (body oil)): no increase
count at 28 days against the 14 days' count ([2]; Example 10, toothpaste formulation): no increase
count at 28 days against the 14 days' count ([2]; Example 11, aqueous solution with surfactants (shampoos)): no increase
count at 28 days against the 14 days' count ([2]; Example 12, oil-in-water emulsion with non-ionic surfactants (face cream)): no increase
count at 28 days against the 14 days' count ([2]; Example 13, oil-in-water emulsion with non-ionic surfactants (sun protector, polysorbate 60)): no increase
count at 28 days against the 14 days' count ([2]; Example 14, oil-in-water emulsion with non-ionic surfactants (sun protector, cetyl dimethicone copolyol)): no increase
count at 28 days against the 14 days' count ([2]; Example 15, emulsion for hands care): no increase
M.I.C. [3]: 16 ppm
M.I.C. [4]: 64 ppm
M.I.C. [5]: 32 ppm
M.I.C. [6]: 20 ppm
M.I.C. [7]: 64 ppm
M.I.C. [8]: 32 ppm
M.I.C. [9]: 16 ppm
M.I.C. [10]: 16 ppm
M.I.C. [11]: 32 ppm
M.I.C. [12]: 32 ppm
viable count With LAE ([13]; Example 1, oil-in-water emulsion with non-ionic surfactant, 7 days): <9.9 · 10^1 cfu/mL
viable count With LAE ([13]; Example 1, oil-in-water emulsion with non-ionic surfactant, 14 days): <9.9 · 10^1 cfu/mL
viable count With LAE ([13]; Example 1, oil-in-water emulsion with non-ionic surfactant, Initial): 1.7 · 10^4 cfu/mL
viable count With LAE ([13]; Example 2, oil-in-water emulsion with an ionic emulsifier, 7 days): <9.9 · 10^1 cfu/mL
viable count With LAE ([13]; Example 2, oil-in-water emulsion with an ionic emulsifier, 14 days): <9.9 · 10^1 cfu/mL
viable count With LAE ([13]; Example 2, oil-in-water emulsion with an ionic emulsifier, Initial): 1.4 · 10^4 cfu/mL
viable count With LAE ([13]; Example 3, water in oil emulsion with non-ionic emulsifiers, 7 days): <9.9 · 10^1 cfu/mL
viable count With LAE ([13]; Example 3, water in oil emulsion with non-ionic emulsifiers, 14 days): <9.9 · 10^1 cfu/mL
viable count With LAE ([13]; Example 3, water in oil emulsion with non-ionic emulsifiers, Initial): 1.0 · 10^4 cfu/mL
viable count With LAE ([13]; Example 4, aqueous solution with a surfactants' mixture (bath gels, disodium cocoamfoacetate), 7 days): 2.7 · 10^2 cfu/mL
viable count With LAE ([13]; Example 4, aqueous solution with a surfactants' mixture (bath gels, disodium cocoamfoacetate), 14 days): <9.9 · 10^1 cfu/mL
viable count With LAE ([13]; Example 4, aqueous solution with a surfactants' mixture (bath gels, disodium cocoamfoacetate), Initial): 1.9 · 10^4 cfu/mL
viable count With LAE ([13]; Example 5, aqueous solution with a surfactants' mixture (bath gels, disodium lauryl sulfosuccinate), 7 days): <9.9 · 10^1 cfu/mL
viable count With LAE ([13]; Example 5, aqueous solution with a surfactants' mixture (bath gels, disodium lauryl sulfosuccinate), 14 days): <9.9 · 10^1 cfu/mL
viable count With LAE ([13]; Example 5, aqueous solution with a surfactants' mixture (bath gels, disodium lauryl sulfosuccinate), Initial): 1.4 · 10^4 cfu/mL
viable count With LAE ([13]; Example 6, hydroalcoholic gel (after-shaving lotions), 7 days): 4.1 · 10^2 cfu/mL
viable count With LAE ([13]; Example 6, hydroalcoholic gel (after-shaving lotions), 14 days): <9.9 · 10^1 cfu/mL
viable count With LAE ([13]; Example 6, hydroalcoholic gel (after-shaving lotions), Initial): 9.1 · 10^4 cfu/mL
viable count With LAE ([13]; Example 7, facial tonic, 7 days): 1.3 · 10^2 cfu/mL
viable count With LAE ([13]; Example 7, facial tonic, 14 days): <9.9 · 10^1 cfu/mL
viable count With LAE ([13]; Example 7, facial tonic, Initial): 2.1 · 10^4 cfu/mL
viable count With LAE ([13]; Example 8, mask-up cleaner, 7 days): 3.5 · 10^2 cfu/mL
viable count With LAE ([13]; Example 8, mask-up cleaner, 14 days): <9.9 · 10^1 cfu/mL
viable count With LAE ([13]; Example 8, mask-up cleaner, Initial): 7.6 · 10^4 cfu/mL
viable count With LAE ([13]; Example 9, fluid oil-in-water emulsion with non-ionic surfactants (body oil), 7 days): 1.4 · 10^2 cfu/mL
viable count With LAE ([13]; Example 9, fluid oil-in-water emulsion with non-ionic surfactants (body oil), 14 days): <9.9 · 10^1 cfu/mL
viable count With LAE ([13]; Example 9, fluid oil-in-water emulsion with non-ionic surfactants (body oil), Initial): 7.6 · 10^4 cfu/mL
viable count With LAE ([13]; Example 10, toothpaste formulation, 7 days): 1.6 · 10^2 cfu/mL
viable count With LAE ([13]; Example 10, toothpaste formulation, 14 days): <9.9 · 10^1 cfu/mL
viable count With LAE ([13]; Example 10, toothpaste formulation, Initial): 5.6 · 10^4 cfu/mL
viable count With LAE ([13]; Example 11, aqueous solution with surfactants (shampoos), 7 days): 1.1 · 10^2 cfu/mL
viable count With LAE ([13]; Example 11, aqueous solution with surfactants (shampoos), 14 days): <9.9 · 10^1 cfu/mL
viable count With LAE ([13]; Example 11, aqueous solution with surfactants (shampoos), Initial): 9.6 · 10^4 cfu/mL
viable count With LAE ([13]; Example 12, oil-in-water emulsion with non-ionic surfactants (face cream), 7 days): 8.7 · 10^2 cfu/mL
viable count With LAE ([13]; Example 12, oil-in-water emulsion with non-ionic surfactants (face cream), 14 days): <9.9 · 10^1 cfu/mL
viable count With LAE ([13]; Example 12, oil-in-water emulsion with non-ionic surfactants (face cream), Initial): 1.7 · 10^4 cfu/mL
viable count With LAE ([13]; Example 13, oil-in-water emulsion with non-ionic surfactants (sun protector, polysorbate 60), 7 days): 2.7 · 10^2 cfu/mL
viable count With LAE ([13]; Example 13, oil-in-water emulsion with non-ionic surfactants (sun protector, polysorbate 60), 14 days): <9.9 · 10^1 cfu/mL
viable count With LAE ([13]; Example 13, oil-in-water emulsion with non-ionic surfactants (sun protector, polysorbate 60), Initial): 4.9 · 10^4 cfu/mL
viable count With LAE ([13]; Example 14, oil-in-water emulsion with non-ionic surfactants (sun protector, cetyl dimethicone copolyol), 7 days): 6.7 · 10^2 cfu/mL
viable count With LAE ([13]; Example 14, oil-in-water emulsion with non-ionic surfactants (sun protector, cetyl dimethicone copolyol), 14 days): <9.9 · 10^1 cfu/mL
viable count With LAE ([13]; Example 14, oil-in-water emulsion with non-ionic surfactants (sun protector, cetyl dimethicone copolyol), Initial): 5.3 · 10^4 cfu/mL
viable count With LAE ([13]; Example 15, emulsion for hands care, 7 days): 8.7 · 10^2 cfu/mL
viable count With LAE ([13]; Example 15, emulsion for hands care, 14 days): <9.9 · 10^1 cfu/mL
viable count With LAE ([13]; Example 15, emulsion for hands care, Initial): 5.8 · 10^4 cfu/mL
M.I.C. [14]: 128 ppm
M.I.C. [15]: 32 ppm
M.I.C. [16]: 16 ppm
M.I.C. [17]: 64 ppm
M.I.C. [18]: 32 ppm
